Source: patent US9643930B2, “Substituted indazole derivatives as in vitro MAO-B inhibitors” (“NTZ LAB” LTD., priority 2013, dated 2017)
Where two headings read alike, the source gives them in different places.

How the values were obtained:
human MAO-A = biological target: T1, human MAO-A (Homo sapiens, UniProt P21397); assay: Human MAO-A assay (recombinant enzyme, Amplex Red fluorescence); conditions: for inhibition at 10 µM: read-out: human MAO-A % inhibition at 10 μM
T1 sequence (P21397 1-527): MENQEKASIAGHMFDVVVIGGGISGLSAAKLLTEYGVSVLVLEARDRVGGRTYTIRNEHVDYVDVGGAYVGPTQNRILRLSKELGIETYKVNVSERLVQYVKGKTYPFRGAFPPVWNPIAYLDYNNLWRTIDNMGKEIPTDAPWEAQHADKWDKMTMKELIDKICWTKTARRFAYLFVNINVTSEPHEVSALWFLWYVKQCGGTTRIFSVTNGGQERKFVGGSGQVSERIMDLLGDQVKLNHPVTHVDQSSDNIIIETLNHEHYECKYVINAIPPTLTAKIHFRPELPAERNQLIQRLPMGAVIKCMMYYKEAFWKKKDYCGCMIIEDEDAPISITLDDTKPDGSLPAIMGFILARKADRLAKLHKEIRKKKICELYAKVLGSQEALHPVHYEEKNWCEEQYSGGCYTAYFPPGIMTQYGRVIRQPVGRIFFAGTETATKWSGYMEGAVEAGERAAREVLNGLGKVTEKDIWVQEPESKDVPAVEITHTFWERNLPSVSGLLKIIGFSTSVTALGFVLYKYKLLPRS

rat MAO-A = biological target: T2, rat MAO-A (Rattus norvegicus, UniProt P21396); assay: Rat MAO-A assay (Amplex Red fluorescence, rat liver mitochondria pre-treated with deprenyl); assay type: biochemical; conditions: for inhibition at 10 µM: read-out: rat MAO-A (rat liver mitochondria) % inhibition at 10 μM
T2 construct: from tissue; host or cells: rat liver mitochondria (male Sprague-Dawley rats)
T2 sequence (P21396 1-526): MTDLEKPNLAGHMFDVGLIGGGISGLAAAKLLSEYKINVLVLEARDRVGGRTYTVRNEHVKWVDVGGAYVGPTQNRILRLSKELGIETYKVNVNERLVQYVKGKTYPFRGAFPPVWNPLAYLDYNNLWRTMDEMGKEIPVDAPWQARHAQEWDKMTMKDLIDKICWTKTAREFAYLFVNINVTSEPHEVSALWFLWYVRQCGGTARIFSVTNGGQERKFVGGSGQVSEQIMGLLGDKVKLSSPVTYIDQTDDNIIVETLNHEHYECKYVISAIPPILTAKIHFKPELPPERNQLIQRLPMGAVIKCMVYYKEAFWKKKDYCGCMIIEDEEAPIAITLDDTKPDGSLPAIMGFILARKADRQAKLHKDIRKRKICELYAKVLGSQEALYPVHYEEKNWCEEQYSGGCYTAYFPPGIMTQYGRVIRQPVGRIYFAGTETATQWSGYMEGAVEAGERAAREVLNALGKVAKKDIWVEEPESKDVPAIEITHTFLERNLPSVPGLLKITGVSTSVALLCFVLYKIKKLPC

human MAO-B = biological target: T3, human MAO-B (Homo sapiens, UniProt P27338); assay: Human MAO-B assay (recombinant enzyme, Amplex Red fluorescence); assay type: biochemical; parameters: purchased Sigma-Aldrich M7441; host or cells: baculovirus-infected insect cells (microsomal product); conditions: p-tyramine 150 μM
T3 sequence (P27338 1-520): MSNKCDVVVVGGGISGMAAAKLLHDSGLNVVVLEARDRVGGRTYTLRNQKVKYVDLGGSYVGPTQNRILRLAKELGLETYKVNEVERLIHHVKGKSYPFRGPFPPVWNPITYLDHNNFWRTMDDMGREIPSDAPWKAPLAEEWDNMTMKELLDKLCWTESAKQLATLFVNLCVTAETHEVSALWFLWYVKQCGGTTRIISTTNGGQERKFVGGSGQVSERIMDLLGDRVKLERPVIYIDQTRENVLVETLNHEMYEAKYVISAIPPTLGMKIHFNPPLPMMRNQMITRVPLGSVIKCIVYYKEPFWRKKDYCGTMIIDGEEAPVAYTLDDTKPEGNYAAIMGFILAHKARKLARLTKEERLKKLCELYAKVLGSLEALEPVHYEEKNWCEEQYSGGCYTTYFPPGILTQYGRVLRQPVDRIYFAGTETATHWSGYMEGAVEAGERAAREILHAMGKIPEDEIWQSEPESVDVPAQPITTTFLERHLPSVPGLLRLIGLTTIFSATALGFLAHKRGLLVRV

rat MAO-B = biological target: T4, rat MAO-B (Rattus norvegicus, UniProt P19643); assay: Rat MAO-B assay (Amplex Red fluorescence, rat liver mitochondria pre-treated with clorgyline 30 nM); assay type: biochemical
T4 construct: from tissue; host or cells: rat liver mitochondria (male Sprague-Dawley rats)
T4 sequence (P19643 1-520): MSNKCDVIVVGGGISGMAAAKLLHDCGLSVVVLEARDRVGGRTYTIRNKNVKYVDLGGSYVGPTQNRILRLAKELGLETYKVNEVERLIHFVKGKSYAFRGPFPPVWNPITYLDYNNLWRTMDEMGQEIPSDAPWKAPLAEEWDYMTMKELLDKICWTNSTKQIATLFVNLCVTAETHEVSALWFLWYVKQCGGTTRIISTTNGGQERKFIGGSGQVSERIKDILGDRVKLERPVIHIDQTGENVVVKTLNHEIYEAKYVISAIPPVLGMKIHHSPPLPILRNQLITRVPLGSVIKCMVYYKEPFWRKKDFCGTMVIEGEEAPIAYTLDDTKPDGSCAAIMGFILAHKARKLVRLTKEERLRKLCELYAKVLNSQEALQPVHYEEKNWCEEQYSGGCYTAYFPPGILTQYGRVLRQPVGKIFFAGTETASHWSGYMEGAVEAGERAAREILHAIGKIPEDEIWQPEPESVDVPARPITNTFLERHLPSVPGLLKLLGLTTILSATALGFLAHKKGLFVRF

[1] = read-out: human MAO-A IC50, recombinant human enzyme, p-tyramine 150 μM
[2] = rat liver mitochondria, substrate p-tyramine, read-out: rat MAO-A (rat liver mitochondria) IC50
[3] = at 10 μM, rat liver mitochondria
[4] = rat liver mitochondria pre-treated with clorgyline 30 nM, read-out: rat MAO-B (rat liver mitochondria) IC50

melting point [°C] | SMILES | IC50 (human MAO-A; [1]) [nM] | IC50 (rat MAO-A; [2]) [nM] | inhibition at 10 µM (rat MAO-A; [3]) [%] | IC50 (human MAO-B) [nM] | IC50 (rat MAO-B; [4]) [nM] | IC50 (human MAO-A) [nM] | inhibition at 10 µM (human MAO-A) [%] | IC50 (rat MAO-A) [nM] | IC50 (rat MAO-B) [nM] | inhibition at 10 µM (rat MAO-A) [%]
 | Cn1cc2cc(C(=O)Nc3ccc(F)c(F)c3)ccc2n1 [Example 20, N-(3,4-difluorophenyl)-2-methyl-2H-indazole-5-carboxamide] | 764 ± 40 | 1880 ± 93 | 83 | 38.4 ± 1.8 | 221 ± 21 |  |  |  |  | 
258.3 to 261.3 | COc1ccc(NC(=O)c2ccc3[nH]ncc3c2)cc1OC [Example 7, N-(3,4-dimethoxyphenyl)-1H-indazole-5-carboxamide] |  | > 10000 | 9 | 185 ± 21 | 1400 ± 56 | > 10000 | 9 |  |  | 
 | Fc1cc(/N=C/c2ccc3[nH]ncc3c2)ccc1Cl [Example 23, (E)-N-((1H-indazol-5-yl)methylene)-4-chloro-3-fluoroaniline] |  |  | 27 | 1.91 ± 0.27 |  | > 10000 | 44 | > 10000 | 25.2 ± 0.11 | 
 | O=C(Nc1ccc(F)c(Cl)c1)c1ccc2[nH]ncc2c1 [Example 9, N-(3-chloro-4-fluorophenyl)-1H-indazole-5-carboxamide] |  | > 10000 | 17 |  |  | > 10000 | 40 |  |  | 
 | Cn1cc2cc(C(=O)Nc3ccc(Cl)c(Cl)c3)ccc2n1 [Example 14, N-(3,4-dichlorophenyl)-2-methyl-2H-indazole-5-carboxamide] |  |  |  | 1.44 ± 0.41 | 22.5 ± 0.6 |  |  |  |  | 
276.2 to 277.8 | COc1ccc(NC(=O)c2ccc3[nH]ncc3c2)cc1Cl [Example 3, N-(3-chloro-4-methoxy)-1H-indazole-5-carboxamide] |  | > 10000 | 13 | 3.42 ± 0.28 | 21.9 ± 3.4 | > 10000 | 30 |  |  | 
178.9 to 180.3 | Cn1ccc2cc(C(=O)Nc3ccc(Cl)c(Cl)c3)ccc21 [Example 16, N-(3,4-dichlorophenyl)-1-methyl-1H-indole-5-carboxamide] |  |  | 3 |  |  |  | 13 |  |  | 
306.6 to 307.3 | O=C(Nc1ccc(Cl)c(O)c1)c1ccc2[nH]ncc2c1 [Example 6, N-(4-chloro-3-hydroxyphenyl)-1H-indazole-5-carboxamide] | 3000 ± 122 | > 10000 | 43 | 37.5 ± 7.3 | 385 ± 9 |  | 81 |  |  | 
 | O=C(Nc1ccc(F)c(F)c1)c1ccc2[nH]ncc2c1 [Example 11, N-(3,4-difluorophenyl)-1H-indazole-5-carboxamide] |  | > 10000 | 13 | 1.59 ± 0.16 | 8.89 ± 0.05 | > 10000 | 36 |  |  | 
 | O=C(Nc1ccc(Cl)c(Cl)c1)c1ccc2[nH]ncc2c1 [Example 1] |  |  | 42 |  |  |  | 46 |  |  | 
 | Cn1ncc2cc(C(=O)Nc3ccc(F)c(Cl)c3)ccc21 [Example 17, N-(3-chloro-4-fluorophenyl)-1-methyl-1H-indazole-5-carboxamide] |  |  |  |  | 1.36 ± 0.13 |  |  |  |  | 29
 | Fc1ccc(/N=C/c2ccc3[nH]ncc3c2)cc1Cl [Example 24, (E)-N-((1H-indazol-5-yl)methylene)-3-chloro-4-fluoroaniline] |  |  | 35 | 2.1 ± 0.3 |  | < 10000 | 54 | > 10000 | 6.08 ± 0.52 | 
 | Clc1ccc(/N=C/c2ccc3[nH]ncc3c2)cc1Cl [Example 22, (E)-N-((1H-indazol-5-yl)methylene)-3,4-dichloroaniline] |  |  | 43 |  |  |  | 62 |  |  | 
 | Cn1ncc2cc(/C=N/c3ccc(Cl)c(Cl)c3)ccc21 [Example 26, (E)-3,4-dichloro-N-((1-methyl-1H-indazole-5-yl)methylene)aniline] |  |  | 23 |  |  |  | 57 |  |  | 
 | O=C(Nc1ccc(Cl)c(F)c1)c1ccc2[nH]ncc2c1 [Example 10, N-(4-chloro-3-fluorophenyl)-1H-indazole-5-carboxamide] |  | > 10000 | 30 | 0.668 ± 0.053 | 2.61 ± 0.68 | < 10000 | 55 |  |  | 
 | Cn1ncc2cc(C(=O)Nc3ccc(F)c(F)c3)ccc21 [Example 19, N-(3,4-difluorophenyl)-1-methyl-1H-indazole-5-carboxamide] |  | > 10000 | 18 | 1.52 ± 0.18 | 5.65 ± 0.48 | > 10000 | 46 |  |  | 
 | COCCn1ncc2cc(C(=O)Nc3ccc(Cl)c(Cl)c3)ccc21 [Example 21, N-(3,4-dichlorophenyl)-1-(2-methoxyethyl)-1H-indazole-5-carboxamide] |  | < 10000 | 57 |  |  |  | 81 |  |  | 
 | Clc1cc(/N=C/c2ccc3[nH]ncc3c2)cnc1Cl [Example 25, (E)-N-((1H-indazol-5-yl)methylene)-5,6-dichloropyridin-3-amine] |  |  | 45 | 0.474 ± 0.02 |  | < 10000 | 67 | > 10000 | 1.48 ± 0.07 | 
 | Cn1cc2cc(C(=O)Nc3ccc(F)c(Cl)c3)ccc2n1 [Example 18, N-(3-chloro-4-fluorophenyl)-2-methyl-2H-indazole-5-carboxamide] | 562 ± 62 | 1690 ± 143 | 90 | 8.08 ± 1.05 | 20.3 ± 3 |  | 95 |  |  | 
 | O=C(Nc1cnc(Cl)c(Cl)c1)c1ccc2[nH]ncc2c1 [Example 12, N-(5,6-dichloropyridin-3-yl)-1H-indazole-5-carboxamide] |  | < 10000 | 59 | 5.42 ± 0.2 | 26.6 ± 1.5 | < 10000 | 52 |  |  | 
302.7 to 304.8 | O=C(Nc1cc(Cl)cc(Cl)c1)c1ccc2[nH]ncc2c1 [Example 8, N-(3,5-dichlorophenyl)-1H-indazole-5-carboxamide] |  |  | 5 |  |  | < 10000 | 65 |  |  | 
233.8 to 234.8 | O=C(Nc1ccc(Cl)c(Cl)c1)c1ccc2[nH]ccc2c1 [Example 2, N-(3,4-dichlorophenyl)-1H-indole-5-carboxamide] |  |  | 70 |  |  |  | 88 |  |  | 
